This is an account of results in paper PMC4697807, “Novel Zn^2+ Modulated GPR39 Receptor Agonists Do Not Drive Acute Insulin Secretion in Rodents” (PLoS ONE, 2015).

For test [1], the target named is T1, GPR39 (Homo sapiens, UniProt O43194).
T1 sequence (O43194 1-453): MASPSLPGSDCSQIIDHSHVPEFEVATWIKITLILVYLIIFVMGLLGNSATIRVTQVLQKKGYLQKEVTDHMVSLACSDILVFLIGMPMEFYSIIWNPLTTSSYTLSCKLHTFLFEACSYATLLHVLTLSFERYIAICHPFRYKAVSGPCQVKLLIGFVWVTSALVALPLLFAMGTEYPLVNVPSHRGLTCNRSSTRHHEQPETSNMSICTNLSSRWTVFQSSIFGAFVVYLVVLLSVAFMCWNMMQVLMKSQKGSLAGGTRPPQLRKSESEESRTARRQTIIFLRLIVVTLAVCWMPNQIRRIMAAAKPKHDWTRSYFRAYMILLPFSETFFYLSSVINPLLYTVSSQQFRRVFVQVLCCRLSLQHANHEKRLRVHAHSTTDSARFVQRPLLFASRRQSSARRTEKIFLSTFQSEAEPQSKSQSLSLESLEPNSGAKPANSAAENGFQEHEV
Description: IP1 assay (HTRF), HEK293s-hGPR39 cells. In kind it is cell-based. On the set-up: Full length human (AF034633), rat (DM091294) and mouse (BC085285) GPR39; expressed in transfected cells; host or cells: HEK293s (ATCC CRL-1573), pIRESneo3 vector, selected clones. The settings on record: for Efficacy at 33 μM: AZ1395 100% reference. The text has this: Full length human (AF034633), rat (DM091294) and mouse (BC085285) GPR39 (GeneArt–Life Technologies, Carlsbad, CA) were subcloned into the pIRESneo3 vector (Clontech, Mountain View, CA). The resulting expression vectors hGPR39-, rGPR39- and mGPR39-pIRESneo3 were transfected into HEK293s cells (ATCC CRL-1573) using Lipofectamine 2000 (Life Technologies). Individual clones were isolated using flow cytometry with a FACSVantage SE DIVA (Becton Dickinson, Franklin Lakes, NJ) and clones were chosen based on responses to Zn^2+ measured in a cAMP assay (see below). […] HEK293s-derived cell lines were cultured at 37°C, 10% CO2 and 95% humidity in DMEM supplemented with 10% FBS and 600 μg/ml Geneticin (Life Technologies). The mouse pancreas epithelial cell line NIT-1 (ATCC CRL-2055) with endogenous expression of GPR39 was cultured at 37°C, 5% CO2, and 95% humidity in Ham´s F12 (Life Technologies) supplemented with 10% FBS.
IP1 assays were performed using IP-One Tb kits (CisBio). IP1 production was detected by HTRF as described above. Buffers and reagents were according to manufacturers’ protocols except LiCl concentrations in stimulation buffer which were 50 mM in assays employing HEK293s-hGPR39 cells and 20 mM in assays using NIT-1 cells. For assays using HEK293s-hGPR39 cells, 12,500 cells per well were dispensed into small-volume 384-well plates (Greiner) and IP1 production was stimulated in the presence of compounds for 30 min at 37 °C in a total volume of 20 μl. For assays using NIT-1 cells, 25,000 cells per well were seeded into poly-D-lysine coated 384-well plates (Becton-Dickinson) and cultured in Ham´s F12 medium with 10% FBS. After 48 h, cells were washed with stimulation buffer and IP1 production stimulated in the presence of compounds for 45 min at 37 °C in a total volume of 60 μl.
Concentration response data were fitted with a four parameter logistic fit using Eq 1, y=A+((B−A)/1+((C/x)^D))) (1) where A is no activation, B is full activation, C is the EC50 and D is the Hill slope.

Test [2] has as its target T1, GPR39. Kind of test: DMR positive allosteric modulator (PAM) experiments, compound and Zn^2+ interdependencies. In kind it is cell-based. On the set-up: Full length human (AF034633), rat (DM091294) and mouse (BC085285) GPR39; expressed in transfected cells. Here is the method:
DMR assays were performed using an Epic instrument (Corning Inc., Corning, NY). 12,000 cells per well were cultured for 24 h in 384-well fibronectin-coated Epic biosensor plates (Corning). On the day of experiment, culture medium was removed and replaced with 30 μl buffer A (HBSS, HEPES 20 mM pH7.4, 1% DMSO, 0.01% BSA) using an EL406 (Bio-Tek). Plates were incubated at 26 °C for 1 h inside the Epic to allow for temperature equilibration. A baseline was read for 2 min, and then 15 μl compounds in buffer A were added using a CyBi-Well vario (CyBio) and DMR was detected during 45 min.
Concentration response curves for the interaction between ortosteric and allosteric ligands in the DNR assay were globally fitted to the operational model of allosterism and agonism as described in Leach et al.. Binding data were fitted using one site or two site binding models.
Utilizing the DMR platform, positive allosteric modulator (PAM) experiments were performed in order to more accurately determine the influences of Zn^2+ on the three compounds, see Fig 4. Compound dose responses were generated at 10 different Zn^2+ concentrations, spanning 0 to 30 μM. The presence of Zn^2+ increased potencies of compounds up to 10000-fold. Data were initially globally fitted to the operational model of allosterism and agonism described by Leach et al. However, fits obtained were not of sufficient quality. We therefore decided to calculate modulation in a more simplistic way, here called PAM EC50 and defined as the concentration of modulator (Zn^2+) causing half maximum potentiation of agonist potency.

Test [3] is described as follows: Isothermal titration calorimetry (ITC) of compound with ZnCl2. To be noted: ITC at 30°C; single site binding model; ± SD; read-out: K D (Zn^2+-interaction). Here is the method:
To determine the binding affinities of the discussed compounds for Zn^2+, isothermal titration calorimetry experiments were conducted on a MicroCal ITC-200 system (Malvern Instruments) at a temperature of 30°C. The compounds, provided as a DMSO stock solution of 10 mM, were diluted in 50 mM HEPES (pH 7.4) and 150 mM NaCl to reach a final nominal concentration of 400 μM (= 4% (v/v) final DMSO concentration). Complete titration of the compounds was typically achieved by injecting 27 x 1.3 μl aliquots of 5 mM ZnCl2 provided in a matching buffer. The thermodynamic binding parameters were extracted by non-linear regression analysis of the binding isotherms (Microcal Origin version 7.0 software package). A single site binding model was applied, yielding binding enthalpy (ΔH), stoichiometry (n), entropy (ΔS), and association constant (Ka). All experiments have been performed in triplicate to allow for error estimations.

Setting [4] is: presence of 5 μM Zn^2+, read-out: pEC50 ± SD (converted).
The mark [5] stands for this setting: absence (w/o) of Zn^2+, read-out: EC50.

Where only a bound is given, the exact number is not on record here.

`N#Cc1ccc(OCCn2ccnc2)c(OCCn2ccnc2)c1` [AZ1395, 3,4-bis-(2-imidazol-1-ylethoxy)-benzonitrile]: the EC50 is 2880 nM on GPR39 [1] (absence (w/o) of Zn^2+, read-out: pEC50 ± SD (converted)); 19.1 nM on GPR39 [1] (setting [4]); 3 µM at GPR39 [2] ([Zn2+] μM: 0); 2.6 µM at GPR39 [2] ([Zn2+] μM: 1e-7); 2.4 µM on GPR39 [2] ([Zn2+] μM: 5e-7); 1.7 µM at GPR39 [2] ([Zn2+] μM: 1e-6). For the same compound, the EC50 turned out to be 0.057 µM at GPR39 [2] ([Zn2+] μM: 5e-6); 0.015 µM on GPR39 [2] ([Zn2+] μM: 7e-6); 0.014 µM on GPR39 [2] ([Zn2+] μM: 1e-5); 0.0035 µM at GPR39 [2] ([Zn2+] μM: 2e-5); 0.0027 µM at GPR39 [2] ([Zn2+] μM: 3e-5); 0.16 µM on GPR39 [2] ([Zn2+] μM: 3). Besides, the maximal response (Emax) at GPR39 [2] (in the absence of Zn^2+) is about 75%. The Kd in test [3] was 52100 ± 9100 nM.
Consider `Cc1nc2c(C(=O)O)cnn2c(O)c1Cc1ccc(Cl)cc1` [AZ4237, 6-[(4-chlorophenyl)methyl]-7-hydroxy-5-methyl-pyrazolo[1,5-a]pyrimidine-3-carboxylic acid], for which the “Efficacy at 33 μM” value at GPR39 [1] (absence (w/o) of Zn^2+) was 66%. Also, the EC50 at GPR39 [1] (setting [5]) is over 33000 nM; at GPR39 [1] (setting [4]), 33.9 nM; on GPR39 [2] ([Zn2+] μM: 0), over 33 µM; on GPR39 [2] ([Zn2+] μM: 1e-7), over 33 µM; on GPR39 [2] ([Zn2+] μM: 5e-7), over 33 µM; on GPR39 [2] ([Zn2+] μM: 1e-6) it was 8.3 µM. Besides, the EC50 at GPR39 [2] ([Zn2+] μM: 5e-6) was 0.058 µM; on GPR39 [2] ([Zn2+] μM: 7e-6), 0.045 µM; on GPR39 [2] ([Zn2+] μM: 1e-5), 0.015 µM; on GPR39 [2] ([Zn2+] μM: 2e-5), 0.0074 µM; on GPR39 [2] ([Zn2+] μM: 3e-5) it was 0.003 µM; on GPR39 [2] ([Zn2+] μM: 3), 0.58 µM. In addition, in test [3], the Kd was determined as 8720 ± 1060 nM.
In the case of `Cc1nc(-c2nc3c(c(=O)[nH]2)CN(C(=O)c2cccc(Cl)c2F)CC3)cs1` [AZ7914, 6-(3-chloro-2-fluoro-benzoyl)-2-(2-methylthiazol-4-yl)-3,5,7,8-tetrahydropyrido-[4,3-d]pyrimidin-4-one], the “Efficacy at 33 μM” value at GPR39 [1] (absence (w/o) of Zn^2+) is reported as 45%. The EC50 on GPR39 [1] (setting [5]) is over 33000 nM; at GPR39 [1] (presence of 5 μM Zn^2+, read-out: EC50) it was 74 nM; at GPR39 [2] ([Zn2+] μM: 0) it was over 33 µM; at GPR39 [2] ([Zn2+] μM: 1e-7), over 33 µM; at GPR39 [2] ([Zn2+] μM: 5e-7), over 33 µM; on GPR39 [2] ([Zn2+] μM: 1e-6) it was over 33 µM. The EC50 on GPR39 [2] ([Zn2+] μM: 5e-6) was 0.29 µM; on GPR39 [2] ([Zn2+] μM: 7e-6) it was 0.09 µM; at GPR39 [2] ([Zn2+] μM: 1e-5), 0.042 µM; on GPR39 [2] ([Zn2+] μM: 2e-5), 0.0095 µM; on GPR39 [2] ([Zn2+] μM: 3e-5), 0.0063 µM; at GPR39 [2] ([Zn2+] μM: 3), 1.6 µM. For the same compound, in test [3], the Kd worked out at 30600 ± 19100 nM.
With `[Zn+2]` [Zn^2+], at GPR39 [1] (Zn^2+ by itself), the “pEC50 ± SD” value was “(4.63 ± 0.08)”. The EC50 at GPR39 [1] (Zn^2+ by itself, read-out: EC50) is 24000 nM. The “Emax for Zn^2+ alone, of Emax for Zn^2+ together with any of the GPR39 agonists” value on GPR39 [2] (Zn^2+ alone) is “approximately 35%”.
